From US8772480B2, “Inhibitors of PI3 kinase and/or mTOR” (priority 2009, dated 2014)

What was measured:
Assay type in all cases: biochemical
[1] = target: ProfilerPro Kinase Selectivity Assay Kit kinases (Homo sapiens, UniProt P00519); details: ABL; 1 μM compound concentration
Description: (§1) Compounds were profiled using a LabChip® EZ Reader II platform and a ProfilerPro Kinase Selectivity Assay Kit (Caliper Lifesciences Inc., Hopkinton, Mass.). Compounds were tested at a concentration of 1 M in duplicate, with mean data reported as percent of control (POC).

[2] = target: ProfilerPro Kinase Selectivity Assay Kit kinases (Homo sapiens, UniProt Q13188); details: MST2; 1 μM compound concentration
Description: as §1

[3] = target: ProfilerPro Kinase Selectivity Assay Kit kinases (Homo sapiens, UniProt Q9P0L2); details: MARK1; 1 μM compound concentration
Description: as §1

[4] = target: ProfilerPro Kinase Selectivity Assay Kit kinases (Homo sapiens, UniProt P35968); details: KDR; 1 μM compound concentration
Description: as §1

[5] = target: ProfilerPro Kinase Selectivity Assay Kit kinases (Homo sapiens, UniProt P08069); details: IGF1R; 1 μM compound concentration
Description: as §1

[6] = target: ProfilerPro Kinase Selectivity Assay Kit kinases (Homo sapiens, UniProt Q13627); details: DYRK1a; 1 μM compound concentration
Description: as §1

[7] = target: ProfilerPro Kinase Selectivity Assay Kit kinases (Homo sapiens, UniProt O14757); details: CHK1; 1 μM compound concentration
Description: as §1

[8] = target: ProfilerPro Kinase Selectivity Assay Kit kinases (Homo sapiens, UniProt O00141); details: SGK1; 1 μM compound concentration
Description: as §1

[9] = target: ProfilerPro Kinase Selectivity Assay Kit kinases (Homo sapiens, UniProt P49137); details: MAPKAPK2; 1 μM compound concentration
Description: as §1

[10] = target: ProfilerPro Kinase Selectivity Assay Kit kinases (Homo sapiens, UniProt P11362); details: FGFR1; 1 μM compound concentration
Chain of ProfilerPro Kinase Selectivity Assay Kit kinases (Homo sapiens, UniProt P11362) (P11362 22-822 limits assumed): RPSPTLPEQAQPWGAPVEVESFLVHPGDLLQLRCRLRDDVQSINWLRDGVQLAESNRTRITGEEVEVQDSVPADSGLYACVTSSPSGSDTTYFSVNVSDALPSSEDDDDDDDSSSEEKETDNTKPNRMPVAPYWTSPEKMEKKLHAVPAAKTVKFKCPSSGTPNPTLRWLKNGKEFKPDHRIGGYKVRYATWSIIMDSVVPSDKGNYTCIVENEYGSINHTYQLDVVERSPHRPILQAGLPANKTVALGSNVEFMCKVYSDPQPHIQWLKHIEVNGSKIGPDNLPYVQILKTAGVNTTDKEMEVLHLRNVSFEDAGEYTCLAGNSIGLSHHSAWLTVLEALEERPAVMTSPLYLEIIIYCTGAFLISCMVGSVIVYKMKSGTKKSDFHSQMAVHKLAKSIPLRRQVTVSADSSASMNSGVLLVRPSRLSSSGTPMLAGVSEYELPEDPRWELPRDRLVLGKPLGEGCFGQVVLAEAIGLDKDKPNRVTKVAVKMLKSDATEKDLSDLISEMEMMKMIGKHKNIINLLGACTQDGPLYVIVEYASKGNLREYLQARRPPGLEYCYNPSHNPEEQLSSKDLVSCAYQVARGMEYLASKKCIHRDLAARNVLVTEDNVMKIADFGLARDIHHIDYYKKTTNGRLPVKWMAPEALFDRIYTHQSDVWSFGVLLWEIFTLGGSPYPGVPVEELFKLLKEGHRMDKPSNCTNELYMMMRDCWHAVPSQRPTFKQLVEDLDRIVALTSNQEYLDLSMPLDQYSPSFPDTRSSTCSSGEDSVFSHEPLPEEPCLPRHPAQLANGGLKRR
Description: as §1

[11] = target: ProfilerPro Kinase Selectivity Assay Kit kinases (Homo sapiens, UniProt P48730); details: CK1 delta; 1 μM compound concentration
Description: as §1

[12] = target: ProfilerPro Kinase Selectivity Assay Kit kinases (Homo sapiens, UniProt Q8IW41); details: PRAK; 1 μM compound concentration
Description: as §1

[13] = target: ProfilerPro Kinase Selectivity Assay Kit kinases (Homo sapiens, UniProt O75582); details: MSK1; 1 μM compound concentration
Description: as §1

[14] = target: ProfilerPro Kinase Selectivity Assay Kit kinases (Homo sapiens, UniProt P08581); details: cMET; 1 μM compound concentration
Description: as §1

[15] = target: ProfilerPro Kinase Selectivity Assay Kit kinases (Homo sapiens, UniProt O75116); details: ROCK2; 1 μM compound concentration
Description: as §1

[16] = target: ProfilerPro Kinase Selectivity Assay Kit kinases (Homo sapiens, UniProt Q13177); details: PAK2; 1 μM compound concentration
Description: as §1

[17] = target: ProfilerPro Kinase Selectivity Assay Kit kinases (Homo sapiens, UniProt Q9BZL6); details: PKD2; 1 μM compound concentration
Description: as §1

[18] = target: ProfilerPro Kinase Selectivity Assay Kit kinases (Homo sapiens, UniProt Q06187); details: BTK; 1 μM compound concentration
Chain of ProfilerPro Kinase Selectivity Assay Kit kinases (Homo sapiens, UniProt Q06187) (Q06187 2-659 limits assumed): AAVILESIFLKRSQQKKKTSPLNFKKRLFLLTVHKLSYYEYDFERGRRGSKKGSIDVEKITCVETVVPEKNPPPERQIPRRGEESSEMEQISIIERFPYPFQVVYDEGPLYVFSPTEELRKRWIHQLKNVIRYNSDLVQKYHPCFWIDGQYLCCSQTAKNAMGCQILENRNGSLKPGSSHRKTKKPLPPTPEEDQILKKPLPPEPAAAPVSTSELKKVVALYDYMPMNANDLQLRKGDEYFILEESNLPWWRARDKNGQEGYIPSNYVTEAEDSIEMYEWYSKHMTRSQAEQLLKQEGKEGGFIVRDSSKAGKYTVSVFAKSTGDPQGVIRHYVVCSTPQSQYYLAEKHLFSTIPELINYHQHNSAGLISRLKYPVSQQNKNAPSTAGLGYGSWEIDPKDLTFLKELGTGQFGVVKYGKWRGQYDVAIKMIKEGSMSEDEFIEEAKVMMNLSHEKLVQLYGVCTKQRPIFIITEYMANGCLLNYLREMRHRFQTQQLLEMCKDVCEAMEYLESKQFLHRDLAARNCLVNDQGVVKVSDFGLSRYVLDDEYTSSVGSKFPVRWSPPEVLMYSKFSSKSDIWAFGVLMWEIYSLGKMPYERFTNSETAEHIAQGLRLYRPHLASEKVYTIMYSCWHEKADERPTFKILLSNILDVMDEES
Description: as §1

[19] = target: ProfilerPro Kinase Selectivity Assay Kit kinases (Homo sapiens, UniProt P31751); details: AKT2; 1 μM compound concentration
Description: as §1

[20] = target: ProfilerPro Kinase Selectivity Assay Kit kinases (Homo sapiens, UniProt O14965); details: AURORA A; 1 μM compound concentration
Description: as §1

[21] = target: ProfilerPro Kinase Selectivity Assay Kit kinases (Homo sapiens, UniProt O95819); details: HGK; 1 μM compound concentration
Chain of ProfilerPro Kinase Selectivity Assay Kit kinases (Homo sapiens, UniProt O95819) (O95819 2-1239 limits assumed): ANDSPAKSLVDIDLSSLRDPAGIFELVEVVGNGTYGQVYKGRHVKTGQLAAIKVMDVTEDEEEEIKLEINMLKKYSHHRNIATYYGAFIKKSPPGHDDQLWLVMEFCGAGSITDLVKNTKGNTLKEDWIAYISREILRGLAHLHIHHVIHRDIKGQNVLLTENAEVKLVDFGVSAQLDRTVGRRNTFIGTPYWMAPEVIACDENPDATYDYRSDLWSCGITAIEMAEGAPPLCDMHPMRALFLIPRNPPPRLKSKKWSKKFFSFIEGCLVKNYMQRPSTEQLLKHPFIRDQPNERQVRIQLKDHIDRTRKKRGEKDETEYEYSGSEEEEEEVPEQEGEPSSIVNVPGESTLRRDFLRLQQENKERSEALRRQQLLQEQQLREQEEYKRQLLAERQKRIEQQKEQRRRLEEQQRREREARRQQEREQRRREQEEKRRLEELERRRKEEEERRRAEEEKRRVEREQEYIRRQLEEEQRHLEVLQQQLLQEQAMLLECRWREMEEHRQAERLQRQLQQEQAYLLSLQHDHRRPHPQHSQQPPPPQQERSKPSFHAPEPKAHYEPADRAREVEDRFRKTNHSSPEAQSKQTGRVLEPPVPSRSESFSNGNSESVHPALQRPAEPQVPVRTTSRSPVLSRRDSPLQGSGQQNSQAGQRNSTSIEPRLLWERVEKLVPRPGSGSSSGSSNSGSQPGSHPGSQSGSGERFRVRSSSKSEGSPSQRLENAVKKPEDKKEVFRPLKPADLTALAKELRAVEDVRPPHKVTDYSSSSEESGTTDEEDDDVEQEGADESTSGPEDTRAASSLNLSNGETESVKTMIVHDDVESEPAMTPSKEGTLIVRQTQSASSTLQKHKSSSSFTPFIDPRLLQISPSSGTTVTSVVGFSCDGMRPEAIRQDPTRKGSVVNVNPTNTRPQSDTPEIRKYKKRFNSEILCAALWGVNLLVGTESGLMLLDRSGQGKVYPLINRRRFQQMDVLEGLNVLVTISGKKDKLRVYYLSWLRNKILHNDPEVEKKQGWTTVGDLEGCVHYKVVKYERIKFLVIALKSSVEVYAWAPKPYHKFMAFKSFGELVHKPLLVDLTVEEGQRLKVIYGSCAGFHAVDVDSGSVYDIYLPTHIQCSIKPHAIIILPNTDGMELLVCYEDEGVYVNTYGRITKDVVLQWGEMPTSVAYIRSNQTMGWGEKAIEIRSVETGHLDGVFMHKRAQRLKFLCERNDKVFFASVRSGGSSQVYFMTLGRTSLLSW
Description: as §1

[22] = target: ProfilerPro Kinase Selectivity Assay Kit kinases (Homo sapiens, UniProt P12931); details: SRC; 1 μM compound concentration
Description: as §1

[23] = test system: ProfilerPro Kinase Selectivity Assay Kit kinases; details: 1 μM compound concentration
Description: as §1

[24] = target: ProfilerPro Kinase Selectivity Assay Kit kinases (Homo sapiens, UniProt P17612); details: PKA alpha; 1 μM compound concentration
Description: as §1

[25] = target: ProfilerPro Kinase Selectivity Assay Kit kinases (Homo sapiens, UniProt P27361); details: ERK1; 1 μM compound concentration
Chain of ProfilerPro Kinase Selectivity Assay Kit kinases (Homo sapiens, UniProt P27361) (P27361 2-379 limits assumed): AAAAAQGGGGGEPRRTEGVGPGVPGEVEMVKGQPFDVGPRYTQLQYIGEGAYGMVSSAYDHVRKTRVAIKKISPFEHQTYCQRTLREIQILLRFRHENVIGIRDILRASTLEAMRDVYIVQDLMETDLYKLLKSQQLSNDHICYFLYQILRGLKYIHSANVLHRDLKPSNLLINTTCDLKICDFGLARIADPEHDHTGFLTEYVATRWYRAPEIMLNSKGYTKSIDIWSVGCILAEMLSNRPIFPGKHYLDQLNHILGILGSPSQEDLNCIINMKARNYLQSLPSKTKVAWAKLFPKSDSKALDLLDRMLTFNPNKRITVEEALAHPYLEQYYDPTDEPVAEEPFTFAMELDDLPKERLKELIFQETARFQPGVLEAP
Description: as §1

[26] = target: ProfilerPro Kinase Selectivity Assay Kit kinases (Homo sapiens, UniProt P43405); details: SYK; 1 μM compound concentration
Description: as §1

[27] = target: ProfilerPro Kinase Selectivity Assay Kit kinases (Homo sapiens, UniProt P06213); details: INSR; 1 μM compound concentration
Description: as §1

[28] = target: ProfilerPro Kinase Selectivity Assay Kit kinases (Homo sapiens, UniProt P06241); details: FYN; 1 μM compound concentration
Chain of ProfilerPro Kinase Selectivity Assay Kit kinases (Homo sapiens, UniProt P06241) (P06241 2-537 limits assumed): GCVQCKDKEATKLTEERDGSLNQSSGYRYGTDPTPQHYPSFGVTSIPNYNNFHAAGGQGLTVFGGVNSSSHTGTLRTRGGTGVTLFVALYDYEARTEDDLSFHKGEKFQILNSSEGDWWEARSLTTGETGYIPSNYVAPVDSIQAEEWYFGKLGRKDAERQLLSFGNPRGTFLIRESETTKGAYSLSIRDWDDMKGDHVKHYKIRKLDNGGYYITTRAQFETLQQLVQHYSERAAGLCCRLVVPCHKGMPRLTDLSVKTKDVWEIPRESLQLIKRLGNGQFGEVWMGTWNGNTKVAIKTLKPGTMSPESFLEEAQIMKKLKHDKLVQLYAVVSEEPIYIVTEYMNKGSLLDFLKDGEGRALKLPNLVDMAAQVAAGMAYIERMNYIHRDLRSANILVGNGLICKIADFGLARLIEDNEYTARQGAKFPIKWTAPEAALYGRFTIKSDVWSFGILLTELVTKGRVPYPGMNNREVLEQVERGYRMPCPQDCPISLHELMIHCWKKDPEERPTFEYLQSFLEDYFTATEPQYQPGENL
Description: as §1

[29] = target: ProfilerPro Kinase Selectivity Assay Kit kinases (Homo sapiens, UniProt P24941); details: CDK2; 1 μM compound concentration
Description: as §1

[30] = target: ProfilerPro Kinase Selectivity Assay Kit kinases (Homo sapiens, UniProt P36888); details: FLT3; 1 μM compound concentration
Chain of ProfilerPro Kinase Selectivity Assay Kit kinases (Homo sapiens, UniProt P36888) (P36888 27-993 limits assumed): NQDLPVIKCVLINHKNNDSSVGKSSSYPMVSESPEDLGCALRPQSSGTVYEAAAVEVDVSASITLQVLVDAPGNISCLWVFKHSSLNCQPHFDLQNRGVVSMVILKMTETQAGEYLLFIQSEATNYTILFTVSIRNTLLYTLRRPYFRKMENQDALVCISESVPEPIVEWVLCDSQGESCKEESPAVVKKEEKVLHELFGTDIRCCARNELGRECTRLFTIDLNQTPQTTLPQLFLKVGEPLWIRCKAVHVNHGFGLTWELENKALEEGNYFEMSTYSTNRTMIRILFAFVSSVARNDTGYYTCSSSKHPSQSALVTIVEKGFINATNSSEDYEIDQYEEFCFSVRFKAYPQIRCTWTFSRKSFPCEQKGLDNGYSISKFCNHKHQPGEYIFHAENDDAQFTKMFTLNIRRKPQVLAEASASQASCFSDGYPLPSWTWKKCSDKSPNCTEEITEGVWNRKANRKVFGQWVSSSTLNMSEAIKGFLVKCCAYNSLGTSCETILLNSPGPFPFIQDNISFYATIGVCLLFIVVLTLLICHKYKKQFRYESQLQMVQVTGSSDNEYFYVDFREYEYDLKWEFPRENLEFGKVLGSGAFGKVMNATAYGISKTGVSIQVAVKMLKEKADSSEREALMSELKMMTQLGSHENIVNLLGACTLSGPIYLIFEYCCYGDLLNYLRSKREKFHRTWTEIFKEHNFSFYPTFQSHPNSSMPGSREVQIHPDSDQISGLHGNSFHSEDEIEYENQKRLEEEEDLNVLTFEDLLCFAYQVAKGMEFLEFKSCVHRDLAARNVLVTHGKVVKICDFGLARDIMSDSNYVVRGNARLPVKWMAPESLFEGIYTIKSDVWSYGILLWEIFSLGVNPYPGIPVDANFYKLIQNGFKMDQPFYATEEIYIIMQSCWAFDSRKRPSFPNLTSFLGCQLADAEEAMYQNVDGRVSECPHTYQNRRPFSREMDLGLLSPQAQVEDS
Description: as §1

[31] = target: ProfilerPro Kinase Selectivity Assay Kit kinases (Homo sapiens, UniProt P07948); details: LYN; 1 μM compound concentration
Description: as §1

SMILES | POC (Percent of control) ABL [1] [POC] | POC (Percent of control) MST2 [2] [POC] | POC (Percent of control) MARK1 [3] [POC] | POC (Percent of control) KDR [4] [POC] | POC (Percent of control) IGF1R [5] [POC] | POC (Percent of control) DYRK1a [6] [POC] | POC (Percent of control) CHK1 [7] [POC] | POC (Percent of control) SGK1 [8] [POC] | POC (Percent of control) MAPKAPK2 [9] [POC] | POC (Percent of control) FGFR1 [10] [POC] | POC (Percent of control) CK1 delta [11] [POC] | POC (Percent of control) PRAK [12] [POC] | POC (Percent of control) MSK1 [13] [POC] | POC (Percent of control) cMET [14] [POC] | POC (Percent of control) ROCK2 [15] [POC] | POC (Percent of control) PAK2 [16] [POC] | POC (Percent of control) PKD2 [17] [POC] | POC (Percent of control) BTK [18] [POC] | POC (Percent of control) AKT2 [19] [POC] | POC (Percent of control) AURORA A [20] [POC] | other results
Cc1nc(N)nc(-c2cccnc2Nc2cccc3[nH]ccc23)n1 [Example 22, N-(3-(4-Amino-6-Methyl-1,3,5-Triazin-2-yl)Pyridin-2-yl)-1H-Indol-4-Amine] | 103 | 98 | 109 | 106 | 97 | 96 | 103 | 99 | 98 | 96 | 91 | 106 | 103 | 106 | 94 | 99 | 99 | 99 | 97 | 102 | POC (Percent of control) HGK [21]: 97 POC; POC (Percent of control) SRC [22]: 101 POC; POC (Percent of control) AMPK [23]: 92 POC; POC (Percent of control) CAMK2 [23]: 118 POC; POC (Percent of control) PKC beta2 [23]: 96 POC; POC (Percent of control) TAK1 [23]: 99 POC; POC (Percent of control) PKA alpha [24]: 97 POC; POC (Percent of control) ERK1 [25]: 99 POC; POC (Percent of control) SYK [26]: 96 POC; POC (Percent of control) INSR [27]: 96 POC; POC (Percent of control) FYN [28]: 103 POC; POC (Percent of control) CDK2 [29]: 107 POC; POC (Percent of control) FLT3 [30]: 105 POC; POC (Percent of control) LYN [31]: 108 POC
Cc1nc(N)nc(-c2cccnc2Nc2cccc(O)c2)n1 [Example 23, 3-(3-(4-Amino-6-Methyl-1,3,5-Triazin-2-yl)Pyridin-2-Ylamino)Phenol] | 97 | 101 | 97 | 105 | 101 | 93 | 105 | 102 | 99 | 99 | 70 | 97 | 112 | 104 | 101 | 96 | 104 | 100 | 112 | 112 | POC (Percent of control) HGK [21]: 99 POC; POC (Percent of control) SRC [22]: 99 POC; POC (Percent of control) AMPK [23]: 98 POC; POC (Percent of control) CAMK2 [23]: 108 POC; POC (Percent of control) PKC beta2 [23]: 92 POC; POC (Percent of control) TAK1 [23]: 102 POC; POC (Percent of control) PKA alpha [24]: 99 POC; POC (Percent of control) ERK1 [25]: 104 POC; POC (Percent of control) SYK [26]: 110 POC; POC (Percent of control) INSR [27]: 98 POC; POC (Percent of control) FYN [28]: 96 POC; POC (Percent of control) CDK2 [29]: 106 POC; POC (Percent of control) FLT3 [30]: 106 POC; POC (Percent of control) LYN [31]: 101 POC
Cc1nc(N)cc(-c2cccnc2Nc2cccc3[nH]ncc23)n1 [Example 27, N-(3-(6-Amino-2-Methylpyrimidin-4-yl)Pyridin-2-yl)-1H-Indazol-4-Amine] | 104 | 84 | 102 | 81 | 41 | 92 | 103 | 85 | 101 | 94 | 43 | 98 | 94 | 95 | 95 | 99 | 102 | 99 | 95 | 78 | POC (Percent of control) HGK [21]: 91 POC; POC (Percent of control) SRC [22]: 89 POC; POC (Percent of control) AMPK [23]: 83 POC; POC (Percent of control) CAMK2 [23]: 116 POC; POC (Percent of control) PKC beta2 [23]: 166 POC; POC (Percent of control) TAK1 [23]: 102 POC; POC (Percent of control) PKA alpha [24]: 84 POC; POC (Percent of control) ERK1 [25]: 100 POC; POC (Percent of control) SYK [26]: 83 POC; POC (Percent of control) INSR [27]: 71 POC; POC (Percent of control) FYN [28]: 98 POC; POC (Percent of control) CDK2 [29]: 84 POC; POC (Percent of control) FLT3 [30]: 73 POC; POC (Percent of control) LYN [31]: 91 POC
